Measurements reported in publication PMC6877959, “β-Lactoglobulin Heptapeptide Reduces Oxidative Stress in Intestinal Epithelial Cells and Angiotensin II-Induced Vasoconstriction on Mouse Mesenteric Arteries by Induction of Nuclear Factor Erythroid 2-Related Factor 2 (Nrf2) Translocation” (Oxidative Medicine and Cellular Longevity, 2019).
Ends that are not written are not given here.

Columns and labels:
[1] = Caco-2 cell monolayer permeation (transepithelial transport); type: in vitro ADME; details: human, Caco-2, 21-day, transwell, apical to basolateral, HBSS 25 mM HEPES pH 7.4, 37°C, time point 120 min, UHPLC-MS/MS, means ± S.D.
Description: (§1) The colorectal adenocarcinoma (Caco-2) cell line was purchased from ATCC (Rockville, MD, USA). Cells were maintained in high-glucose DMEM (4.5 g/L) supplemented with 2 mM L-glutamine and 10% (v/v) heat-inactivated foetal bovine serum. Cells were cultured at 37°C in a humidified 5% CO2 atmosphere. To induce enterocytic Caco-2 differentiation, cells were seeded in a 12-well multiwell in transwell inserts (PET membrane, 0.4 μm pore size, 1.12 cm^2 surface area) at 2.6 × 10^5 cells/cm^2 and maintained for 21 days in complete medium. The medium was changed every second day. By 21 days, the monolayers become completely differentiated.
(§2) The integrity of the monolayers was evaluated by measurement of the transepithelial electrical resistance (TEER) using an EVOM2 epithelial voltohmmeter (World Precision Instruments, Sarasota, FL, USA). Only monolayers showing TEER higher than 300 Ω × cm^2 were then used for transport experiments. The integrity of the monolayers was checked before, during, and after the experiment. The filters were washed for 15-20 min at 37°C adding prewarmed Hank's balanced salt solution buffered with 25 mM HEPES and NaHCO3 (0.35 g/L) at pH 7.4 to the apical (0.4 mL) and to the basolateral (1.2 mL) transwell compartments, as previously described. For transport experiments, donor solution containing BRP2 peptide at the desired concentration (100-1 μM) was added to the apical compartment for the apical to basolateral (absorptive) direction. Samples from the receiving compartment were collected at different time points up to 120 min (15, 30, 60, 90, and 120 min). Samples from the donor compartment were collected at time 0 and at the end of the experiment (120 min) for the calculation of the mass balance.
(§3) Samples were stored at −20°C until UHPLC-MS/MS analyses to measure the concentration of BRP2 in both compartments (for detailed conditions, see Supporting Information ).
(§4) The apparent permeability coefficient (Papp) was calculated as described according to (1) Papp=dMR^t/dt×1/A×CD0, where MR is the amount of substance in the receiver chamber, A (cm^2) is the surface area of the barrier, and CD0 (μM) is the initial donor concentration. The reduction in donor concentration was also taken after every sampling (see Supporting Information ).
(§5) Instead, for the quantification of BRP2 in donor and receiver chamber, the stock solution was diluted with fresh HBSS to a series of concentrations ranged of 125-0.5 nM to establish the calibration curve (y = 0.000001x – 0,000363; R^2 ≥ 0.9997).
(§6) The apparent permeability values of BRP2 were calculated according to the Eq. 1. This calculation requires that the sink conditions are fulfilled, that is, the ratio CR/CD is less than 0.1 at each sampling point used in the analysis. […] The donor concentration was recalculated by subtracting the cumulative amount transported to the receiver chamber for each time interval:
(§7) CD (ti) and CR (ti) (μM): donor and receiver chamber concentrations calculated at each sample occasion (i) from the donor and receiver concentrations at the previous occasion CD (ti–1) and CR (ti–1), respectively; f=1–VS/VR: sample replacement diluition factor; VS (cm^3): sample volume; VR (cm^3): receiver chamber volume; VD (cm^3): donor chamber volume. ^[28]
(§8) recovery (%) = (CD(fin) × VD +∑ (CS(t) × VS(t)) + CR(fin) × VR(fin)) × 100 / (CD(0) × VD(0)) […]

Caco-2 cell monolayer [2] = assay: as above; type: in vitro ADME; details: UHPLC-MS/MS
Description: as §1, §2, §3, §4, §5, §6, §7, §8

Caco-2 cell monolayer [3] = assay: Immunofluorescence of Caco-2 monolayers after transport (zonulin-1, integrity); type: cell-based; details: after transport studies, all the concentrations tested
Description: The transwell membranes from TEER experiments were washed with PBS and fixed with 4% paraformaldehyde (PFA) for 15 min. Membranes were then washed in PBS and blocked with blocking solution (0.1% Triton, 1% BSA, 0.02% sodium azide, and 50 mM ammonium chloride) for 20 min at room temperature in the dark. Afterwards, they were incubated with an anti-zonulin 1 antibody (#402200, Invitrogen, Thermo Fisher Scientific, Waltham, MA, USA) at the final concentration of 2 μg mL^−1 at room temperature for 2 hours. Immunofluorescence staining was obtained by incubating the membranes for 90 min with Alexa Fluor 488 donkey anti-rabbit IgG (#A31573) at the final concentration of 4 μg mL^−1 (Invitrogen). The nuclei were counterstained with DAPI (1 : 2000). Membranes were cut down with an operating knife blade along the margin of the chamber and were mounted on slides using VectaMount solution (AQ Vector Laboratories, Burlingame, CA, USA). Slides were examined under a Nikon fluorescence inverted microscope (Nikon Instruments Europe, Firenze, Italy) and then analyzed through ImageJ software as previously described.
Figure S3: Fluorescence micrograph of the Caco-2 cell monolayers. Caco-2 cell monolayers treated with BRP2 (50 µM, 2 h) from TEER experiments were stained for tight junction protein expression of zonulin-1 (FITC, green). Nuclei were counterstained with DAPI (blue). […]

Q: Which Papp A→B at 120 min, 1 μM ([1]; BRP2 1 μM) does the source give for “SFNPTQL [BRP2, Ser-Phe-Asn-Pro-Thr-Gln-Leu]” here?
A: The Papp A→B at 120 min, 1 μM was 0.53 ± 0.15 ×10⁻⁶ cm/s.

Q: What about the Papp A→B at 120 min, 50 μM ([1]; BRP2 50 μM) of the same substance?
A: The Papp A→B at 120 min, 50 μM was 0.2 ± 0.05 ×10⁻⁶ cm/s.

Q: What about the Papp A→B at 120 min, 100 μM ([1]; BRP2 100 μM) of the same substance?
A: Its Papp A→B at 120 min, 100 μM is 0.27 ± 0.07 ×10⁻⁶ cm/s.

Q: What about the Papp (Caco-2 cell monolayer [2]; BRP2 10 μM, Caco-2, 21-day, transwell, apical to basolateral, HBSS 25 mM HEPES pH 7.4, 37°C, time point 120 min, means ± S.D.) of the same substance?
A: Its Papp is 0.53 ± 0.01 10^-6 cm/s.

Q: What about the “mass balance (recovery)” value (Caco-2 cell monolayer [2]; Caco-2 transport, donor sampled at 0 and 120 min) of the same substance?
A: Its value is “more than 80%”.

Q: And the “Caco-2 cell monolayer integrity (zonulin-1 expression)” value (Caco-2 cell monolayer [3])?
A: The value was “preserved”.
